Assay results from patent US20250009737A1, “COMPOUNDS AND METHODS FOR THE TARGETED DEGRADATION OF ANDROGEN RECEPTOR” (Arvinas Operations, Inc., priority 2023, published 2025).
Read-outs that look alike come from different tables or passages of the source.

Key:
[1] = molecular target: T1, CYP2D6 (Homo sapiens, UniProt P10635); assay: Direct and time-dependent CYP2D6 inhibition in pooled human liver microsomes; type: in vitro ADME; conditions: pooled HLM, substrate Bufuralol 5 μM
T1 construct: evaluated in pooled human liver microsomes (HLM); from tissue; host or cells: pooled human liver microsomes
Procedure: The induction potential of Compound A on CYP enzymes was assessed in cryopreserved human hepatocytes from three donors. Following treatment for with Compound A at concentrations of 0.03-30 μM for 48 hours, mRNA levels for CYP1A2, 2B6, 2C8, 2C9, 2C19, and 3A4 were determined by semiquantitative real-time polymerase chain reaction (PCR). Test article concentrations during 24-hour incubation were determined. The potential of Compound A to cause direct and time-dependent inhibition (TDI) of the activities of CYP1A2, 2B6, 2C8, 2C9, 2C19, 2D6, and 3A4 was evaluated in pooled human liver microsomes (HLM) at 0.2-15 μM. Probe substrate concentrations around Km were used for direction inhibition and initial TDI assays. For TDI assay, Compound A was pre-incubated with pooled HLM with and without NADPH for 30 minutes prior to incubation with a single concentration of probe substrate.

[2] = Metabolite profiling / stability in human hepatocyte suspension; type: in vitro ADME
Procedure: Metabolite profiling was conducted in incubations of Compound A (2 and 10 μM) with HLM (up to 60 min), human hepatocyte suspension (up to 240 min) and human plasma (up to 360 min). In addition, Compound A (2 μM) was incubated with recombinant human CYP enzymes CYP1A2, CYP2A6, CYP2B6, CYP2C8, CYP2C9, CYP2C19, CYP2D6, CYP2E1, CYP3A4 and CYP3A5.
The DDI potential of Compound A as a victim via CYP mediated pathways was examined in HLM, human hepatocyte suspensions, and human recombinant CYP enzymes.

[3] = test system: human hepatocytes; assay: Hepatocyte viability, upfront MTT assay; type: cell-based; conditions: 0.03-30 μM, after 2 days treatment
Procedure: Positive control inducers behaved as expected (Table 1). Maximal 2.5-8.8-fold induction (4-6% of positive control response) in CYP3A4 mRNA were found at 0.1-0.3 μM in all three donors, and 3.1-fold for CYP2C8 mRNA in one of three lots (donor 3 only) at 0.1 μM (28% of positive control response). The induction response was attenuated at higher concentrations (Table 1).

[4] = molecular target: T2, OAT1 (Homo sapiens, UniProt Q4U2R8); assay: OAT1 uptake transporter inhibition in MDCKII or HEK293 cells; type: in vitro ADME; conditions: substrate Estrone-3-sulfate (E3S) (5 μM)
T2 construct: expressed in transfected cells; host or cells: MDCKII or HEK293
Procedure: (§1) In addition, the inhibition potential against efflux transporters (P-glycoprotein (Pgp) and breast cancer resistance protein (BCRP)) and uptake transporters (MATE1, MATE2-K, OATP1B1, OATP1B3, OAT1, OAT3, and OCT2) was assessed using single transporter over-expressed cell monolayers (MDCK II or HEK293) or inside-out vesicles.
(§2) The potential of Compound A to inhibit Pgp or BCRP was tested for bidirectional transport of the probe substrates in Pgp or BCRP-expressed MDCKII and control monolayers at Compound A concentrations of 0.07-5 μM. Pgp and BCR inhibition were tested in inside-out membrane vesicles prepared from HEK293 overexpressing human Pgp and BCR at concentrations of 0.01-9 μM Compound A in the presence of 4 mM MgATP or MgAMP.

[5] = molecular target: Pgp (Homo sapiens, UniProt P08183); assay: Pgp inhibition, bidirectional transport in Pgp-expressed MDCKII monolayers; type: in vitro ADME; set-up: expressed in transfected cells; host or cells: MDCKII
Procedure: as §1, §2

[6] = molecular target: T3, MATE2-K (Homo sapiens, UniProt Q86VL8); assay: MATE2-K uptake transporter inhibition in MDCKII or HEK293 cells; type: in vitro ADME; conditions: substrate Metformin (10 μM)
T3 construct: expressed in transfected cells; host or cells: MDCKII or HEK293
Procedure: as §1, §2

[7] = test system: CYP3A4 mRNA; assay: CYP3A4 mRNA induction in cryopreserved human hepatocytes; type: in vitro ADME; conditions: for CYP3A4 mRNA induction, % PC: % of positive control response; for CYP3A4 mRNA Fold induction: human hepatocytes, maximal

Pgp, sequence (P08183 whole entry): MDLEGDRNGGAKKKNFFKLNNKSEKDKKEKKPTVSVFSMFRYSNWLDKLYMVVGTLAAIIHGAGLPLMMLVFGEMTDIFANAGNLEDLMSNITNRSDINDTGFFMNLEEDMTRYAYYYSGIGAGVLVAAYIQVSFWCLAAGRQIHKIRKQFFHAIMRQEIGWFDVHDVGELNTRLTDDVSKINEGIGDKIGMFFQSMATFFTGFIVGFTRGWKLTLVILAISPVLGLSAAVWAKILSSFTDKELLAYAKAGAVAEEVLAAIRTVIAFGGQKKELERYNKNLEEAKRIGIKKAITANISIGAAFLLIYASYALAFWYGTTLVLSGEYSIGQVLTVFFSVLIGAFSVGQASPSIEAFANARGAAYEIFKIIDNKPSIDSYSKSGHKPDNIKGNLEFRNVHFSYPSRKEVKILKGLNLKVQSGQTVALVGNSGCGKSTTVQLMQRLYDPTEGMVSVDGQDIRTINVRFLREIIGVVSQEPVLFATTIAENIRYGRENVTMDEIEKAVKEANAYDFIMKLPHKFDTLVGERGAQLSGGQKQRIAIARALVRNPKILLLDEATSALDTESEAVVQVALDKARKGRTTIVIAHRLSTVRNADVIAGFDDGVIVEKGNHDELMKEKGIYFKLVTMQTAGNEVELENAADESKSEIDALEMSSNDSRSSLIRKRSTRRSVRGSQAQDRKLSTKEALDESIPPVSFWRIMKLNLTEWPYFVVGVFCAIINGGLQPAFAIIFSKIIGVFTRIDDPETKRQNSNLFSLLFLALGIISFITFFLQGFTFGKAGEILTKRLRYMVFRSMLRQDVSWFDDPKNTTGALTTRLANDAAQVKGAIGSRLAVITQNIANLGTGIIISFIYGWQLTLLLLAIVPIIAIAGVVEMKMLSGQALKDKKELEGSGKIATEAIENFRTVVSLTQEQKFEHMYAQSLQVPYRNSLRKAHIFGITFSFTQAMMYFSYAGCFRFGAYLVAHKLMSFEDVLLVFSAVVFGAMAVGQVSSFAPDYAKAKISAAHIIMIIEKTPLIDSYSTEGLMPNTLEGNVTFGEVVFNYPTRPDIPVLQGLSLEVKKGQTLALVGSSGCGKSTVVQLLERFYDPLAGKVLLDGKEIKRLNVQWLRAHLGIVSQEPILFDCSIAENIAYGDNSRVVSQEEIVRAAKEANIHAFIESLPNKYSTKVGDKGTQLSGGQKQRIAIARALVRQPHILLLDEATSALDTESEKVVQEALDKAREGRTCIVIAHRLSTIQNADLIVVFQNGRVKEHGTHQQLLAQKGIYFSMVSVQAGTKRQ
T1 sequence (P10635 whole entry): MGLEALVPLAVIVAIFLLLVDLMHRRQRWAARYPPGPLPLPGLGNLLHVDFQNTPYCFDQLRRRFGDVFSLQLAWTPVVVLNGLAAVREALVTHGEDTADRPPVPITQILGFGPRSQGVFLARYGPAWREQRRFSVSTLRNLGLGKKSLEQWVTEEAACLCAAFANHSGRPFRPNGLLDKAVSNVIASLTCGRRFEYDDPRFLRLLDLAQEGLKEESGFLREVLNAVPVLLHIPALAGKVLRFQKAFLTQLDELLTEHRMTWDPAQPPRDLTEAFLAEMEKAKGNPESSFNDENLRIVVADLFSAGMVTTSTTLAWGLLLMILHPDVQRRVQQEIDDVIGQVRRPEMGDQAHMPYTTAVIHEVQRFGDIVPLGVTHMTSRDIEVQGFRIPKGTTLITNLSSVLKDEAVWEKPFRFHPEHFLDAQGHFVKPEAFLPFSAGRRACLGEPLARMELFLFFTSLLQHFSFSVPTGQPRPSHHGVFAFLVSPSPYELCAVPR
T3 sequence (Q86VL8 1-566 isoform Q86VL8-3): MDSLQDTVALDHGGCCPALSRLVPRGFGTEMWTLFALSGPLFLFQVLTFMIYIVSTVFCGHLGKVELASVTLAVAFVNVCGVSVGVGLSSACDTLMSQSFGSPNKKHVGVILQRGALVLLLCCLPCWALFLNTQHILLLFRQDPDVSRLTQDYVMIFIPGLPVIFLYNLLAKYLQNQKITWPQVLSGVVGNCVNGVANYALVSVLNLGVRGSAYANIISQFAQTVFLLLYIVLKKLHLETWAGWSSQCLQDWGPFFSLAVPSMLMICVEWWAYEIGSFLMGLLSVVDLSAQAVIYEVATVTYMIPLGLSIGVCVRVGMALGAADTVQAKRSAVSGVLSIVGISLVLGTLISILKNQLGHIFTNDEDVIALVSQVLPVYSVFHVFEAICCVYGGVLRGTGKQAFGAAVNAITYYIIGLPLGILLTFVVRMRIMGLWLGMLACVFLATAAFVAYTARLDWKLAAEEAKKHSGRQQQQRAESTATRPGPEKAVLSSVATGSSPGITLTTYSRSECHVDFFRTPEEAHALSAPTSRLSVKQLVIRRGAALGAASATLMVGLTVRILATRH
T2 sequence (Q4U2R8 whole entry): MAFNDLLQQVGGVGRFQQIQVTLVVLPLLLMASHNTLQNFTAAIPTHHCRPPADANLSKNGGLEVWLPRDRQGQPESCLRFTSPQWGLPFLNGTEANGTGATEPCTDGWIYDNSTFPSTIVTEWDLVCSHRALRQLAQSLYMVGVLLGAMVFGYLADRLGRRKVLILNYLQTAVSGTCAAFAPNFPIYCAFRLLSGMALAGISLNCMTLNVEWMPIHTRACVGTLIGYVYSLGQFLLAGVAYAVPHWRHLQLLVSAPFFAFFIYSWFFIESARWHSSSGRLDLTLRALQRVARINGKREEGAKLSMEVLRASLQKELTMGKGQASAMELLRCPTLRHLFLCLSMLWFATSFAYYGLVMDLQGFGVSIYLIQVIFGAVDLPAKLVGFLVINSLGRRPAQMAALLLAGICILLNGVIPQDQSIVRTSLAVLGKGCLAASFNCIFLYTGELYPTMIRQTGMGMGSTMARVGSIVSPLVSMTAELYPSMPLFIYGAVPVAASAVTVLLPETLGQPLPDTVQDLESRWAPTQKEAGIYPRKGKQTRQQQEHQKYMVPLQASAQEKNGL

IC50 ([1]; read-out: IC50, 30 min Pre-incubation): > 15 µM
IC50 ([1]; read-out: IC50, No Pre-incubation): > 15 µM
% Parent at 0 Min, HH at 240 min ([2]; human hepatocyte suspensions, 240 min): 86.9%
Stability in human hepatocyte suspension ([2]; up to 240 min): relatively stable
IC50 [4]: > 3.75 µM
Pgp inhibition in the MDCKII bidirectional assays ([5]; MDCKII bidirectional assays): not observed
inhibition at 5 µM ([5]; Pgp-expressed MDCKII cell monolayers, probe Digoxin (5 μM), Pgp, Monolayers, substrate Digoxin (5 μM), read-out: Maximal % Inhibition): < 20%
IC50 ([5]; Pgp, Monolayers, substrate Digoxin (5 μM)): > 5 µM
IC50 [6]: > 3.75 µM
CYP3A4 mRNA induction, % PC ([7]; Donor 1): 5 % PC
CYP3A4 mRNA Fold induction ([7]; Donor 1): 8.8 Fold
CYP3A4 mRNA induction, % PC ([7]; Donor 2): 6 % PC
CYP3A4 mRNA Fold induction ([7]; Donor 2): 2.5 Fold
CYP3A4 mRNA induction, % PC ([7]; Donor 3): 5 % PC
CYP3A4 mRNA Fold induction ([7]; Donor 3): 3.3 Fold
CYP3A4 mRNA induction, % of positive control response ([7]; all three donors, at 0.1-0.3 μM): 4-6%
fold induction at 48 h ([7]; human, cryopreserved human hepatocytes, all three donors, at 0.1-0.3 μM, read-out: Maximal fold induction in CYP3A4 mRNA): 2.5 to 8.8
Structure (SMILES): COc1cc(O[C@H]2C(C)(C)[C@H](NC(=O)c3ccc(N4CCC(CN5CCN(c6ccc(C(=O)N[C@H]7CCC(=O)NC7=O)c(F)c6)CC5)CC4)cc3)C2(C)C)ccc1C#N [Compound A, 4-(4-((1-(4-(((1R,3R)-3-(4-cyano-3-methoxyphenoxy)-2,2,4,4-tetramethylcyclobutyl)carbamoyl)phenyl)piperidin-4-yl)methyl)piperazin-1-yl)-N—((S)-2,6-dioxopiperidin-3-yl)-2-fluorobenzamide]
Hepatocyte viability [3]: no significant decrease
